From US9211305B2, “Pharmaceutical compositions with glycosaminoglycans and use thereof in the treatment of chronic ulcers” (LABORATORIOS FARMACEUTICOS ROVI S.A., priority 2008, dated 2015)

Key:
[1] = in vivo; cited from earlier work
[2] = test system: C57BL/KS.Cg-m Lepr^db+/+m mouse; experiment: Example 5: wound healing in non-diabetic mouse, subcutaneous route; type: in vivo
Method: The C57BL/KS.Cg-m Lepr^db+/+m mouse is the non-diabetic analog of the mouse used in the previous example.
On the first day of the assay, the animals were anesthetized (ketamine+xylazine, 100+10 mg/kg, i.m.). The back of the animal was shaved, the area was cleaned with disinfectant and the location of the wound was marked by means of a template to make its position the same in all the animals.
The wound was made by means of a circular incision with a diameter of approximately 1.5 cm, the skin of the mid-dorsal area being removed. A semipermeable dressing was subsequently placed on the wound. 1 mL/animal of physiological serum was administered by i.p. route after the intervention.
The wound area was calculated as the percentage of reduction thereof to evaluate the degree of curing thereof, by means of the standardized formula: […]
The measurement performed immediately after the intervention or incision was used as the baseline area. On the following day and for a total of 14 days, the assigned treatments were administered to the animals.
On the following day and for a total of 14 days, 10 ml/kg were administered to the animals by subcutaneous route in the back of the animal, avoiding the area of the wound.
The follow-up of the animals was performed up to a period of 21 days. The assessment was performed by means of digital photography of the wound and subsequent image analysis.
The animals were sacrificed on day 21 of the study and the area of the skin where the wound was caused was stored in formol to perform a histopathological evaluation (hematoxylin-eosin staining).
Each section was given a histological score in the grade 1 to grade V range, where I means uncured wound and V means completely epithelialized wound. The score is based on the degree of cell invasion, the formation of granulation tissue, vascularization and epithelialization.

[3] = test system: factor Xa; experiment: Anti-factor Xa activity; type: biochemical
[4] = subcutaneous 14 days, sacrifice day 21, doses as in the 23rd table

Bemiparin
Plasma Half-Life [1]: 5.3 h
Plasma Half-Life Range [1]: 5.2 to 5.4 h
healing rate with respect to the control ([2]; subcutaneous 1000 IU Xa/kg): does not improve the healing rate
histopathological Grade [2, 4]: III (7-9 Moderately thick granulation tissue. It can vary from being dominated by inflammatory cells to greater presence of fibroblasts and collagen deposition, extensive neovascularization, minimum to moderate epithelial migration.)
histopathological Score [2, 4]: 8
anti-Xa/anti-IIa ratio [3]: greater than 8
